# Tests used:
# [1] = system: diarrhea; assay: Diarrhea Assay; type: in vivo, male Charles River rats
# [2] = Diarrhea Assay; type: in vivo, male Charles River rats; details: in vivo
Structure (SMILES),"Diarrhea Assay Rat (iv) ED50 ([1]; Rat (iv) per table head, method text: intragastric, fasted rats, up to eight hours) [mg/kg]","selectivity ratio ([2]; ratio of rat diarrhea ED50 to Pavlov pouch antisecretory ED50, read-out: Thrapeutic Index ED50 diarrhea/ED50 antisecretory)","Diarrhea Assay Rat (iv), result in words ([1]; Rat (iv), at 3200 mcg/kg)","TD50 ([2]; Rat (iv) per table head, method text: intragastric, fasted rats, up to eight hours, read-out: Diarrhea Assay Rat (iv) ED50) [mg/kg]"
"COC(=O)CC/C=C\CC[C@H]1C(=O)C[C@@H](O)[C@@H]1/C=C/CC(C)(O)/C=C/C1=CCCC1 (relative stereo) [Example 1, methyl 7-[3α-hydroxy-2β-(4-hydroxy-4-methyl-6-(1'-cyclopentenyl)-1,5-trans,trans-hexadienyl)-5-oxocyclopentane]-1-α-hept-4-cis-enoate]",3.2,160000,–,–
COC(=O)CC/C=C\CC[C@H]1C(=O)C[C@@H](O)[C@@H]1/C=C/CC(C)(O)/C=C/C=C(C)C (relative stereo) [Example 2],–,–,inactive,3.2

# From US4847293A, “Tetraenyl prostaglandins” (priority 1988, dated 1989)
